{"source": "ChEMBL document CHEMBL5584341", "about": "“Discovery of Potent, Specific, and Orally Available NLRP3 Inflammasome Inhibitors Based on Pyridazine Scaffolds for the Treatment of Septic Shock and Peritonitis” (J Med Chem, 2024)", "key": {"[1]": {"target": "NACHT, LRR and PYD domains-containing protein 3 (Mus musculus) (UniProt Q8R4B8)", "sequence (Q8R4B8 whole entry, the tested form may be a part)": "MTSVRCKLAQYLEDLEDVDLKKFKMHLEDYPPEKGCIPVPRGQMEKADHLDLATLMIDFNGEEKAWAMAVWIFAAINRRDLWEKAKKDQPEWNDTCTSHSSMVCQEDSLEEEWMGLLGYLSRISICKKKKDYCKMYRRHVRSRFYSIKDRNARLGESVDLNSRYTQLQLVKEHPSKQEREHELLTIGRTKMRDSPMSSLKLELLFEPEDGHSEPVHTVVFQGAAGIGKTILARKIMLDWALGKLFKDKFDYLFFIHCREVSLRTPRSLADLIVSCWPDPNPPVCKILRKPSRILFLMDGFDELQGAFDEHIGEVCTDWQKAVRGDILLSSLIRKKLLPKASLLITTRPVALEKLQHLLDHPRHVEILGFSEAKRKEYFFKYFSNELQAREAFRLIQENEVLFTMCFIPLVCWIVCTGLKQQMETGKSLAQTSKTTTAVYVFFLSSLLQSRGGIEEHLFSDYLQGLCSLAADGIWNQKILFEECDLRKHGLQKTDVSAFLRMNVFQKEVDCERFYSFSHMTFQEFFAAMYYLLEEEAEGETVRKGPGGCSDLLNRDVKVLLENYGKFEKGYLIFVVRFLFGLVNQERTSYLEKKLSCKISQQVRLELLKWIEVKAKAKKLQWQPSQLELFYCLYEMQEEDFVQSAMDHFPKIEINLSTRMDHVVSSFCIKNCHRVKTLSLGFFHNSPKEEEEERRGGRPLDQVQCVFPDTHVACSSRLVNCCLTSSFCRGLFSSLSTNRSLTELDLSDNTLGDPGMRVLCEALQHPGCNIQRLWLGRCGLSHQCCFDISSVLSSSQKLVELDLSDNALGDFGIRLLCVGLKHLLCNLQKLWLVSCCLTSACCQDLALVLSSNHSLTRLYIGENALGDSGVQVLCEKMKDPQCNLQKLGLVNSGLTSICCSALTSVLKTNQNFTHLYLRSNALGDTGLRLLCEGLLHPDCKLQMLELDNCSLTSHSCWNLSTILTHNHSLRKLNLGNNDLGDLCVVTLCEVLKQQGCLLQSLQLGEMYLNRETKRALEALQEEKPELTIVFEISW", "test": "Inhibition of NLRP3 inflammasome activation in mouse BMDMs assessed as effect on TNF-alpha production at 2 to 31.25 nM pretreated with compound for 40 mins followed by LPS/ nigericin stimulation", "type": "cell-based", "settings": "BMDM, dose 2-31.25 nM"}, "[2]": {"test_system": "Mus musculus", "test": "Antiinflammatory activity against LPS induced septic shock in BALB/c mouse assessed as reduction in TNFalpha level at 25 mg/kg, ip pretreated for 1 hr followed by LPS stimulation and measured after 3 hrs by ELISA", "type": "functional, organism-based", "settings": "time 4.0 hrs"}, "[3]": {"test_system": "Mus musculus", "test": "Inhibition of MSU crystal induced peritonitis in BALB/c mouse assessed as reduction in neutrophil recruitment at 50 to 100 mg/kg, ip pretreated with LPS for 3 hrs followed by compound addition prior to MSU stimulation for 6 hrs by ELISA", "type": "functional, organism-based", "settings": "dose 50-100 mg/kg"}, "[4]": {"test": "Inhibition of IL-1beta release in PMA-differentiated/ LPS and nigericin stimulated human THP-1 cells at 0.1 uM pretreated with LPS for 3 hrs followed by incubation with compound for 40 mins and later stimulated with nigericin for 40 mins by ELISA", "type": "functional", "settings": "THP-1, 1.333 h, time 80 min"}, "[5]": {"test_system": "THP-1", "test": "Inhibition of nigericin induced ASC oligomerization in PMA differentiated human THP-1 cells at 5 to 80 nM pretreated compound for 40 mins followed by nigericin stimulation by immunofluorescence analysis", "type": "functional, cell-based", "settings": "dose 5-80 nM"}}, "note": "Calls of active or inactive are those of the source. The rule behind the calls is not given here."}
{"smiles": "OCCN1CCC[C@@H](Nc2nnc(-c3ccc4occc4c3O)c3c2C2CCC3CC2)C1", "values": [{"measurement": "inhibition", "setting": "[1]", "result": "inactive"}, {"measurement": "Activity", "setting": "[2]", "result": "Active"}, {"measurement": "inhibition", "setting": "[3]", "result": "Active"}, {"measurement": "inhibition at 0.1 µM", "setting": "[4]", "result": 98.9, "unit": "%"}, {"measurement": "inhibition", "setting": "[5]", "result": "Active"}]}
